Assay results reported in patent US20090209525A1, “ENABLING METHODS TO IDENTIFY ALLOSTERIC MODULATORS OF RECEPTOR ACTIVITY” (priority 2006, published 2009).
Numbering of substitutions follows the chain as printed. Where two headings read alike, the source gives them in different places.

Legend:
M1 W101A receptor [1] = molecular target: T1, M1 W101A receptor (Rattus norvegicus, UniProt P08482, W101A); experiment: R-SAT HTS on M1 W101A receptor; type: cell-based; conditions: compound at 3 μM, triplicate retest, activity over basal cellular response
T1 construct: expressed in transfected cells
T1 sequence (P08482 1-460 W101A): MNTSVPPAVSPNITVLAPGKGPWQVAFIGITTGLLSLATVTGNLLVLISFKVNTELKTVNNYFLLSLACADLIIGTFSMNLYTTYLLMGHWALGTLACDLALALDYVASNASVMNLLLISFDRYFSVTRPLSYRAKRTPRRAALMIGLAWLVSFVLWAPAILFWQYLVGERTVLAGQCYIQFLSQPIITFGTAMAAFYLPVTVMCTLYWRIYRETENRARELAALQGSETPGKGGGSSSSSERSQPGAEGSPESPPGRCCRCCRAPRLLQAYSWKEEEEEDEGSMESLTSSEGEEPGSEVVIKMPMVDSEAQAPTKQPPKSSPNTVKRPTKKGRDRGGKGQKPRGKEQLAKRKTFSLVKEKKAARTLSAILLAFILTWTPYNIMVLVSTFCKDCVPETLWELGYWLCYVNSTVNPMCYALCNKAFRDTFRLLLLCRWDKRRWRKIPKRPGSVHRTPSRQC
Method: (§1) NIH-3T3 cells were grown in 96-well tissue culture plates to 70 to 80% confluence in Dulbecco's modified essential media (DMEM) supplemented with 100 units/ml penicillin, 100 micrograms/ml streptomycin, 0.3 mg/ml L-glutamine (1% PSG, GIBCO) and 10% calf serum (Sigma-Aldrich). Cells were transfected for 18 h with DMEM containing 0.08 micrograms/ml receptor DNA and 0.3 micrograms/ml pSI-Bgal (Promega, Madison Wis.), 0.5% v/v Polyfect (Qiagen, Valencia Calif.). Medium was replaced with DMEM containing 1% PSG, 0.5% calf serum, 2% cyto-sf3 (Kemp Biotechnologies, Frederick, Md.), and varying concentrations of ligand. […] Cells were grown in a humidified atmosphere with 5% ambient CO2 for 5 days. Medium was removed from the plates, and beta-galactosidase activity was measured by the addition of o-nitrophenyl -d-galactopyranoside in phosphate-buffered saline with 5% Nonidet P-40.
Cells were contacted with over 280,000 compounds at a concentration of 3 μM.

M1 W101A receptor [2] = molecular target: T1, M1 W101A receptor; experiment: R-SAT HTS on M1 W101A receptor; type: cell-based; conditions: compound at 300 nM, triplicate retest, activity over basal cellular response
rat M1 Y381A receptor = molecular target: T2, rat M1 Y381A receptor (Rattus norvegicus, UniProt P08482, Y381A); experiment: R-SAT functional assay, Y381A mutant; type: cell-based
T2 construct: expressed in transfected cells; host or cells: NIH-3T3
T2 sequence (P08482 1-460 Y381A): T1 sequence (P08482 1-460 W101A) with A101W, Y381A
Method: (§2) Cells are co-transfected for 18 h with DMEM containing 0.08 micrograms/ml of an expression vector for the expression of the mutant receptor and 0.3 micrograms/ml pSI-Bgal (Promega, Madison Wis.), and 0.5% v/v Polyfect (Qiagen, Valencia Calif.), as recommended by the manufacturer. On day three, the medium is replaced with DMEM containing 1% PSG, 0.5% calf serum, 2% cyto-sf3 (Kemp Biotechnologies, Frederick, Md.), and varying concentrations of the compounds to be tested. Cells are grown in a humidified atmosphere with 5% ambient CO2 for 5 days. The media is removed from the plates, and beta-galactosidase activity is measured by the addition of o-nitrophenyl -d-galactopyranoside in phosphate-buffered saline with 5% Nonidet P-40. […] The following equation is fitted to the data using GraphPad Prism software (San Diego, Calif.):
as §1
(§3) Receptor Selection and Amplification (R-SAT™) Assays: R-SAT™ functional assays were carried out as follows. NIH-3T3 cells were grown in 96-well tissue culture plates to 70 to 80% confluence in Dulbecco's modified essential media (DMEM) supplemented with 100 units/ml penicillin, 100 micrograms/ml streptomycin, 0.3 mg/ml L-glutamine (1% PSG, GIBCO) and 10% calf serum (Sigma-Aldrich). Cells were transfected for 18 h with DMEM containing 0.08 micrograms/ml receptor DNA and 0.3 micrograms/ml pSI-Bgal (Promega, Madison Wis.), 0.5% v/v Polyfect (Qiagen, Valencia Calif.). The transfected cells were frozen away. Cells were thawed and added to 96 well plates with DMEM containing 1% PSG, 0.5% calf serum, 2% cyto-sf3 (Kemp Biotechnologies, Frederick, Md.), and varying concentrations of ligand.
(§4) In an effort to further characterize monoamine modulators, we used a panel of mutant muscarininc M1 receptors to analyze the activity and potency of orthosteric modulators and various allosteric modulators at those receptors.

[3] = molecular target: T3, rat M1 wild-type receptors (Rattus norvegicus, UniProt P08482); experiment: R-SAT functional assay, wild-type receptor; type: cell-based
T3 construct: expressed in transfected cells
T3 sequence (P08482 1-460): T1 sequence (P08482 1-460 W101A) with A101W
Method: as §2, §1, §3, §4

M1 Y381A receptor = molecular target: T4, M1 Y381A receptor (Rattus norvegicus, UniProt P08482, Y381A); experiment: R-SAT antagonism of muscarinic agonists, Y381A; type: cell-based; conditions: M1 YS81A as printed; maximal inhibition of NDMC (3 μM) response
T4 construct: expressed in transfected cells; host or cells: NIH-3T3
T4 sequence (P08482 1-460 Y381A): T1 sequence (P08482 1-460 W101A) with A101W, Y381A
Method: as §3

rat M1 W101A receptor = molecular target: T5, rat M1 W101A receptor (Rattus norvegicus, UniProt P08482, W101A); experiment: R-SAT functional assay, W101A mutant; type: cell-based; conditions: M1 W101A
T5 construct: expressed in transfected cells
T5 sequence (P08482 1-460 W101A): T1 sequence (P08482 1-460 W101A)
Method: as §2, §1, §3, §4

M1 Y381 mutant receptor = molecular target: T6, M1 Y381 mutant receptor (Rattus norvegicus, UniProt P08482, Y381A); conditions: result in words; FIGS. 8A-8C
T6 sequence (P08482 1-460 Y381A): T1 sequence (P08482 1-460 W101A) with A101W, Y381A

[4] = Table 10, M1 Y381A, maximum response relative to AC-42
[5] = Table 10, M1 Wild-Type, maximum response relative to carbachol
[6] = Table 4, maximum response relative to xanomeline
[7] = Table 4, M1 Y381A, maximum response relative to xanomeline
[8] = Table 4, M1 wild type, maximum response relative to xanomeline

| SMILES | 3 μM Avg. (M1 W101A receptor [1]) | 300 nM Avg (M1 W101A receptor [2]) | also measured |
| --- | --- | --- | --- |
| CCCOC1CCN(C[C@@H](C)CN2C(=O)COc3ccccc32)CC1.O=C(O)C(=O)O | 4.63 | 4.14 | – |
| CCCOC1CCN(CCCn2c(=O)ccc3ccccc32)CC1 | 4.65 | 3.90 | – |
| CCCOC1CCN(C[C@@H](C)CN2C(=O)COc3ccccc32)CC1 | 4.51 | 4.15 | – |
| CCCCC1CCN(C[C@@H](C)Cn2c(=O)ccc3ccccc32)CC1.O=C(O)C(O)C(O)C(=O)O | 4.50 | 4.34 | – |
| CCCOC1CCN(C[C@@H](C)CN2C(=O)CCc3ccccc32)CC1.O=C(O)C(=O)O | 4.44 | 4.11 | – |
| CCCOC1CCN(C[C@@H](C)Cn2c(=O)ccc3ccccc32)CC1.O=C(O)C(=O)O | 4.37 | 4.29 | – |
| CCCCC1CCN(CCCN2C(=O)CCc3cc(OC)ccc32)CC1.O=C(O)C(=O)O | 4.19 | 3.32 | – |
| CCCC=C1CCN(C[C@@H](C)CN2C(=O)COc3ccc(F)cc32)CC1.O=C(O)C(=O)O | 4.17 | 3.81 | – |
| CCCCC1CCN(CCCn2c(=O)ccc3cc(F)ccc32)CC1 | 3.85 | 3.81 | – |
| CCCCC1CCN(C[C@@H](C)CN2C(=O)CCc3ccccc32)CC1.O=C(O)C(=O)O | 3.74 | 3.93 | – |
| CCCCC1CCN(CCn2c(=O)[nH]c3ccccc32)CC1 | 3.67 | 3.26 | – |
| CCCCC1CCN(CCCN2C(=O)CCc3ccccc32)CC1.O=C(O)C(=O)O | 3.60 | 3.13 | – |
| CCCCC1CCN(C[C@@H](C)CN2C(=O)COc3ccccc32)CC1.O=C(O)C(=O)O | 3.55 | 4.16 | – |
| COCCC1CCN(CCCn2c(=O)sc3ccccc32)CC1.O=C(O)C(=O)O | 3.35 | 2.87 | – |
| CCCCC1CCN(CCCN2C(=O)CSc3ccccc32)CC1.O=C(O)C(=O)O | 3.34 | 3.30 | – |
| CCCCC1CCN(CCCN2C(=O)COc3ccccc32)CC1.O=C(O)C(=O)O | 3.23 | 3.86 | – |
| CC(C)COc1ccc(CC(=O)N(Cc2ccc(F)cc2)C2CCN(CCCN3C(=O)OC[C@@H]3C(C)C)CC2)cc1.O=C(O)C(=O)O | 3.18 | 2.58 | – |
| CCOCCC1CCN(CCCn2c(=O)[nH]c3ccccc32)CC1.O=C(O)C(F)(F)F | 2.83 | 2.70 | – |
| CCCCC1CCN(CCCn2c(=O)oc3c(Cl)cc(Cl)c(Cl)c32)CC1.O=C(O)C(=O)O | 2.60 | 2.36 | – |
| CCCCC1CCN(CCCN2C(=O)COc3ccc(C(C)=O)cc32)CC1 | 2.41 | 2.86 | – |
| CN1CCN(C2=Nc3ccccc3Oc3ccc(Cl)cc32)CC1.O=C(O)CCC(=O)O [Loxapine] | – | – | EC50 (rat M1 Y381A receptor; Table 10, M1 Y381A, NA = non-active, read-out: pEC50 (converted)): 1260 nM; % Eff (rat M1 Y381A receptor; [4]): 165%; % Eff [3, 5]: 3% |
| C[N+]1(C)[C@@H]2C[C@@H](OC(=O)[C@H](CO)c3ccccc3)C[C@H]1[C@@H]1O[C@@H]12 [NMS] | – | – | inhib (M1 Y381A receptor): 36% |
| O=C1CCCN1CC#CCN1CCCC1 [Oxotremorine] | – | – | % Eff (rat M1 W101A receptor; [6]): 87%; % Eff (rat M1 W101A receptor; Table 10, maximum response relative to AC-42): 120%; EC50 (rat M1 W101A receptor; pEC50, Table 4): 3160 nM; EC50 (rat M1 W101A receptor; pEC50, Table 10): 2510 nM; EC50 (rat M1 Y381A receptor): 3980 nM; % Eff (rat M1 Y381A receptor; [7]): 8%; % Eff (rat M1 Y381A receptor; [4]): 23%; % Eff [3, 8]: 91%; % Eff [3, 5]: 91%; EC50 ([3]; pEC50, Table 4, M1 wild type): 79.4 nM; EC50 ([3]; pEC50, Table 10, M1 Wild-Type, NA = non-active): 31.6 nM |
| CCCCCCOc1nsnc1C1=CCCN(C)C1 [Xanomeline] | – | – | % Eff (rat M1 W101A receptor; [6]): 106%; % Eff (rat M1 Y381A receptor; [7]): 100%; % Eff [3, 8]: 100% |
| C[N+]1(C)[C@@H]2CC(OC(=O)[C@H](CO)c3ccccc3)C[C@H]1[C@@H]1O[C@@H]12 (some centres unmarked) [^3H-NMS, 1-[N-methyl-^3H]Scopolamine methyl chloride] | – | – | binding of ^3H-NMS to receptor (M1 Y381 mutant receptor): not to the Y381 mutant receptor |
